Columns and labels:
HCT-116 = assay: Cytotoxicity against human HCT116 cells after 48 hrs by sulforhodamine B assay; type: functional; conditions: HCT-116, 48 h
M14 = assay: Cytotoxicity against human M14 cells after 48 hrs by sulforhodamine B assay; type: functional; conditions: M14, 48 h
[1] = read-out: LC50 (the source's name)
[2] = read-out: pLC50 (the source's name) (converted)

## O=C(Nc1nonc1-c1ccc(Cl)cc1)c1ccc(C(F)(F)F)cc1
HCT-116; read-out: GI50
  GI50: 2.17 µM
HCT-116; [1]
  CC50: > 100 µM
HCT-116; read-out: pGI50 (converted)
  GI50: 2.19 µM
HCT-116; [2]
  CC50: > 100 µM
M14; read-out: GI50
  GI50: 2.04 µM
M14; [1]
  CC50: > 100 µM
M14; read-out: TGI
  TGI: > 100 µM
M14; read-out: pGI50 (converted)
  GI50: 2.04 µM
M14; [2]
  CC50: > 100 µM
M14; read-out: pTGI
  TGI: > 100 µM

Reference: ChEMBL document CHEMBL3217756, “Biological and computational evaluation of an oxadiazole derivative (MD77) as a new lead for direct STAT3 inhibitors” (Medchemcomm, 2012)
